Key:
[1] = system: IFV (H1N1, A/Puerto Rico/8/34); assay: rRT-PCR quantification of IFV captured on membranes; assay type: binding, influenza virus A/Puerto Rico/8/34 (H1N1); conditions: 1600 pfu incubated 1 h at 25°C; plastic plates; estimated from rRT-PCR standard curve (M gene, R^2 0.954)
Method: The pep-PE/DOPC (50:50) lipid monolayer was attached horizontally to plastic plates as described above. […] After washing with PBS, plates were incubated with AVL viral lysis buffer (QIAamp Viral RNA Mini Kit, QIAGEN) for 10 min. Viral RNA was extracted according to the manufacturer's instructions.
One-step RT-PCR was performed using QuantiTect SYBR Green PCR Kit (QIAGEN) with forward and reverse primers for the sequences of the matrix protein (M) gene for 244 bp (forward M30F2/08: 5′-[…] -3′; reverse M264R3/08: 5′-[…] -3′; Eisfeld et al., [2014]). The reaction was performed using a PikoReal Real-Time PCR system (TCR0096, Thermo Scientific). PCR was set up in a 10-μL reaction volume containing 5 μL of 2 × QuantiTect SYBR Green RT-PCR master mix, 0.1 μL of QuantiTect RT Mix, 0.5 μL of RNA template, 1 μL of forward and reverse primers (10 μM each), and 3.4 μL of RNase free water. […] Fluorescence was measured at the end of each cycle. […] A melting curve analysis consisted of 60°C for 30 s, and followed by a temperature increase to 95°C for 10 s with the continuous reading of fluorescence. The amplified products were analyzed by agarose gel electrophoresis (2.5% agarose) and detected by staining with ethidium bromide (Supplementary Figure 3A). […]

[2] = system: HA; conditions: cited from earlier work
[3] = system: IFV; conditions: ref Matsubara et al., [2010]; cited from earlier work
Source text: The first step in the infection of cells by IFV is the binding of HA to sialic acid-containing glycoconjugates (Skehel and Wiley, [2000]). Human HA strains preferentially bind to the terminal sialylgalactose structure (Neu5Acα2−6Gal), whereas avian and equine strains bind to the corresponding Neu5Acα2−3Gal (Suzuki, [2005]).

In the case of CCCCCCCC/C=C\CCCCCCCC(=O)OC[C@H](COP(=O)([O-])OCC[N+](C)(C)C)OC(=O)CCCCCCC/C=C\CCCCCCCC [DOPC, Dioleoylphosphatidylcholine], the “amount of virus captured on the membrane” value [1] was 100 pfu.

In the case of Ala-Arg-Leu-Pro-Arg, the “binding to receptor-binding site of HA” value ([2]; ref Matsubara et al., [2010]) is given as “binds to the receptor-binding site of HA by mimicking sialic acid” and the “inhibition of IFV infection in cells” value [3] is given as “exerts the inhibitory effects on IFV infection in cells”.

In the case of Neu5Acα2–3Galβ1–4Glcβ1–1′Cer [GM3], the “HA binding to GM3” value ([2]; ref Suzuki et al., [1986], Sato et al., [1996]) is given as “HA binds to GM3 through the sialyllactose structure”.

From paper PMC4823272 (Frontiers in Microbiology, 2016)
